For 16 compounds, IC50 results are on record in patent US20230295182A1, “SPIRO DERIVATIVES OF ALPHA-D-GALACTOPYRANOSIDES” (Idorsia Pharmaceuticals Ltd, priority 2020, published 2023).

One assay addresses human Gal-3 (hGal-3) (Homo sapiens (Human), UniProt P17931). The assay is described as follows: Competitive binding assay: biotinylated hGal-3 to microplate-adsorbed asialofetuin (ASF). Particulars: Activity on hGal-3; binding to ASF-coated plates, 3 hours at 4° C.; mean values. On the procedure: Evaluation of Compound Inhibitory Activity (IC50)
The inhibitory activity of compounds is determined in competitive binding assays. This spectrophotometric assay measures the binding of biotinylated human Gal-3 (hGal-3) or human Gal-1 (hGal-1), respectively, to a microplate-adsorbed glycoprotein, asialofetuin (ASF) (Proc Natl Acad Sci USA. 2013 Mar. 26; 110(13):5052-7.). Alternatively, and preferably, a human Gal-1 version in which all six cysteines are substituted by serines may be used.
Briefly, compounds are serially diluted in DMSO (working dilutions). ASF-coated 384 well plates are supplemented with 22.8 μL/well of biotinylated hGal-3 or hGal-1 in assay buffer (i.e. 300-1000 ng/mL biotinylated hGal-3 or hGal-1) to which 1.2 µL of compound working dilutions are added and mixed.
Plates are incubated for 3 hours at 4° C., then washed with cold assay buffer (3×50 uL), incubated for 1 hour with 25 μL/well of a streptavidin-peroxidase solution (diluted in assay buffer to 80 ng/mL) at 4° C., followed by further washing steps with assay buffer (3×50 uL). Finally, 25 µL/well of ABTS substrate is added.
The calculated IC50 values may fluctuate depending on the daily assay performance. Fluctuations of this kind are known to those skilled in the art. IC50 values from several measurements are given as mean values.

The target of a further assay is human Gal-1 (hGal-1) (Homo sapiens, UniProt P09382). The assay is described as follows: Competitive binding assay: biotinylated hGal-1 to microplate-adsorbed asialofetuin (ASF). The note with it: Activities on hGal-1; binding to ASF-coated plates, 3 hours at 4° C.; mean values; read-out: Gal-1 IC50. Here is the method: Evaluation of Compound Inhibitory Activity (IC50) The inhibitory activity of compounds is determined in competitive binding assays. […] Alternatively, and preferably, a human Gal-1 version in which all six cysteines are substituted by serines may be used. Briefly, compounds are serially diluted in DMSO (working dilutions). […] Plates are incubated for 3 hours at 4° C., then washed with cold assay buffer (3×50 uL), incubated for 1 hour with 25 μL/well of a streptavidin-peroxidase solution (diluted in assay buffer to 80 ng/mL) at 4° C., followed by further washing steps with assay buffer (3×50 uL). Finally, 25 µL/well of ABTS substrate is added. […] The calculated IC50 values may fluctuate depending on the daily assay performance. Fluctuations of this kind are known to those skilled in the art. IC50 values from several measurements are given as mean values.
Chain of human Gal-1 (hGal-1) (P09382 2-135 limits assumed): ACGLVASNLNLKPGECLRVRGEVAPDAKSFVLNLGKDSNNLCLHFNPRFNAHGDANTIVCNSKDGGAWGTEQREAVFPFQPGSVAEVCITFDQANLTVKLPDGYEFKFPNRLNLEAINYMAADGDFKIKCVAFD

Chain of human Gal-3 (hGal-3) (P17931 whole entry): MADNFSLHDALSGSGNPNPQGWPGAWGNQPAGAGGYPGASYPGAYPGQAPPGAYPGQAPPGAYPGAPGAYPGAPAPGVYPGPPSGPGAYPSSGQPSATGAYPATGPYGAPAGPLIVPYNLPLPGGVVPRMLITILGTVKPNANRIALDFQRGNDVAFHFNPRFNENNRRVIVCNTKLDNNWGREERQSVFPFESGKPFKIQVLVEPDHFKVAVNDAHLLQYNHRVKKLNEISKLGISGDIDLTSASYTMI

A word on the IC50: it is the concentration at which inhibition is half-maximal. `CO[C@@H]1[C@@H](n2cc(-c3cc(F)c(F)c(F)c3)nn2)[C@@H](O)[C@@H](CO)O[C@@H]1CC1=NOC2(CCC(C(C)C)CC2)C1` (stereo partly drawn) [Example 1.25, (2R,3R,4S,5R,6R)-2-(hydroxymethyl)-6-((8-isopropyl-1-oxa-2-azaspiro[4.5]dec-2-en-3-yl)methyl)-5-methoxy-4-(4-(3,4,5-trifluorophenyl)-1H-1,2,3-triazol-1-yl)tetrahydro-2H-pyran-3-ol]: the IC50 came out at 1300 nM at human Gal-3 (hGal-3) and 11100 nM at human Gal-1 (hGal-1).

Consider `CO[C@@H]1[C@@H](n2cc(-c3ccc(C)c(F)c3F)nn2)[C@@H](O)[C@@H](CO)O[C@@H]1CC1=NOC2(CCC(F)(F)CC2)C1` [Example 1.26, (2R,3R,4S,5R,6R)-6-((8,8-difluoro-1-oxa-2-azaspiro[4.5]dec-2-en-3-yl)methyl)-4-(4-(2,3-difluoro-4-methylphenyl)-1H-1,2,3-triazol-1-yl)-2-(hydroxymethyl)-5-methoxytetrahydro-2H-pyran-3-ol], for which the values for the IC50 on human Gal-3 (hGal-3) and at human Gal-1 (hGal-1) were 110 nM and 4000 nM, respectively.

With `CO[C@@H]1[C@@H](n2cc(-c3cc(F)c(F)c(F)c3)nn2)[C@@H](O)[C@@H](CO)O[C@@H]1CC1=NO[C@]2(CC[C@H](C(C)C)CC2)C1` [Example 1.27, (2R,3R,4S,5R,6R)-2-(hydroxymethyl)-6-(((5r,8R)-8-isopropyl-1-oxa-2-azaspiro[4.5]dec-2-en-3-yl)methyl)-5-methoxy-4-(4-(3,4,5-trifluorophenyl)-1H-1,2,3-triazol-1-yl)tetrahydro-2H-pyran-3-ol], the concentration for half-maximal inhibition (IC50) on human Gal-3 (hGal-3) came to 1100 nM; at human Gal-1 (hGal-1), 18800 nM.

For the compound `CO[C@@H]1[C@@H](n2cc(-c3cc(F)c(F)c(F)c3)nn2)[C@@H](O)[C@@H](CO)O[C@@H]1CC1=NO[C@]2(CC[C@@H](C(C)C)CC2)C1` [Example 1.28, (2R,3R,4S,5R,6R)-2-(hydroxymethyl)-6-(((5s,8S)-8-isopropyl-1-oxa-2-azaspiro[4.5]dec-2-en-3-yl)methyl)-5-methoxy-4-(4-(3,4,5-trifluorophenyl)-1H-1,2,3-triazol-1-yl)tetrahydro-2H-pyran-3-ol], the IC50 at human Gal-3 (hGal-3) is 2000 nM; on human Gal-1 (hGal-1), 6900 nM.

Take `CO[C@@H]1[C@@H](n2cc(-c3cc(F)c(F)c(F)c3)nn2)[C@@H](O)[C@@H](CO)O[C@@H]1CC1=NOC2(CCC(C)(C)CC2)C1` [Example 1.29, (2R,3R,4S,5R,6R)-6-((8,8-dimethyl-1-oxa-2-azaspiro[4.5]dec-2-en-3-yl)methyl)-2-(hydroxymethyl)-5-methoxy-4-(4-(3,4,5-trifluorophenyl)-1H-1,2,3-triazol-1-yl)tetrahydro-2H-pyran-3-ol]: the results for the IC50 on human Gal-3 (hGal-3) and at human Gal-1 (hGal-1) were 440 nM and 2200 nM, respectively.

Take `CO[C@@H]1[C@@H](n2cc(-c3cc(F)c(F)c(Cl)c3)nn2)[C@@H](O)[C@@H](CO)O[C@@H]1CC1=NOC2(CCCCC2)C1` [Example 1.31, (2R,3R,4S,5R,6R)-6-((1-oxa-2-azaspiro[4.5]dec-2-en-3-yl)methyl)-4-(4-(3-chloro-4,5-difluorophenyl)-1H-1,2,3-triazol-1-yl)-2-(hydroxymethyl)-5-methoxytetrahydro-2H-pyran-3-ol]: the IC50 at human Gal-3 (hGal-3) amounted to 260 nM; on human Gal-1 (hGal-1), 970 nM.

As for `CO[C@@H]1[C@@H](n2cc(-c3cc(F)c(F)c(F)c3)nn2)[C@@H](O)[C@@H](CO)O[C@@H]1CC1=NOC2(CCC(C)(C)C2)C1` (stereo partly drawn) [Example 1.32, (2R,3R,4S,5R,6R)-6-((7,7-dimethyl-1-oxa-2-azaspiro[4.4]non-2-en-3yl)methyl)-2-(hydroxymethyl)-5-methoxy-4-(4-(3,4,5-trifluorophenyl)-1H-1,2,3-triazol-1-yl)tetrahydro-2H-pyran-3-ol], the IC50 at human Gal-3 (hGal-3) turned out to be 340 nM; on human Gal-1 (hGal-1), 3400 nM.

On to `CO[C@@H]1[C@@H](n2cc(-c3cc(F)c(F)c(F)c3)nn2)[C@@H](O)[C@@H](CO)O[C@@H]1CC1=NO[C@]2(CC[C@H](C)CC2)C1` [Example 1.33, (2R,3R,4S,5R,6R)-2-(hydroxymethyl)-5-methoxy-6-(((5r,8R)-8-methyl-1-oxa-2-azaspiro[4.5]dec-2-en-3-yl)methyl)-4-(4-(3,4,5-trifluorophenyl)-1H-1,2,3-triazol-1-yl)tetrahydro-2H-pyran-3-ol], for which the half-inhibitory concentration (IC50) was found to be 330 nM on human Gal-3 (hGal-3) and 3700 nM at human Gal-1 (hGal-1).

`CO[C@@H]1[C@@H](n2cc(-c3cc(F)c(F)c(F)c3)nn2)[C@@H](O)[C@@H](CO)O[C@@H]1CC1=NO[C@]2(CC[C@@H](C)CC2)C1` [Example 1.34, (2R,3R,4S,5R,6R)-2-(hydroxymethyl)-5-methoxy-6-(((5s,8S)-8-methyl-1-oxa-2-azaspiro[4.5]dec-2-en-3-yl)methyl)-4-(4-(3,4,5-trifluorophenyl)-1H-1,2,3-triazol-1-yl)tetrahydro-2H-pyran-3-ol]: the IC50 on human Gal-3 (hGal-3) came to 520 nM; at human Gal-1 (hGal-1), 2500 nM.

For the compound `CO[C@@H]1[C@@H](n2cc(-c3ccc(F)c(F)c3F)nn2)[C@@H](O)[C@@H](CO)O[C@@H]1CC1=NOC2(CCOCC2)C1` [Example 1.35, (2R,3R,4S,5R,6R)-6-((1,8-dioxa-2-azaspiro[4.5]dec-2-en-3-yl)methyl)-2-(hydroxymethyl)-5-methoxy-4-(4-(2,3,4-trifluorophenyl)-1H-1,2,3-triazol-1-yl)tetrahydro-2H-pyran-3-ol], the IC50 on human Gal-3 (hGal-3) amounted to 110 nM; at human Gal-1 (hGal-1), 1400 nM.

Turning to `CO[C@@H]1[C@@H](n2cc(-c3ccc(C)c(F)c3F)nn2)[C@@H](O)[C@@H](CO)O[C@@H]1CC1=NOC2(CCOCC2)C1` [Example 1.36, (2R,3R,4S,5R,6R)-6-((1,8-dioxa-2-azaspiro[4.5]dec-2-en-3-yl)methyl)-4-(4-(2,3-difluoro-4-methylphenyl)-1H-1,2,3-triazol-1-yl)-2-(hydroxymethyl)-5-methoxytetrahydro-2H-pyran-3-ol], the IC50 on human Gal-3 (hGal-3) is 64 nM; at human Gal-1 (hGal-1) it was 3800 nM.

In the case of `CO[C@@H]1[C@@H](n2cc(-c3ccc(Cl)c(F)c3F)nn2)[C@@H](O)[C@@H](CO)O[C@@H]1CC1=NOC2(CCOCC2)C1` [Example 1.37, (2R,3R,4S,5R,6R)-6-((1,8-dioxa-2-azaspiro[4.5]dec-2-en-3-yl)methyl)-4-(4-(4-chloro-2,3-difluorophenyl)-1H-1,2,3-triazol-1-yl)-2-(hydroxymethyl)-5-methoxytetrahydro-2H-pyran-3-ol], the IC50 at human Gal-3 (hGal-3) is 120 nM; on human Gal-1 (hGal-1) it was 4600 nM.

Consider `CO[C@@H]1[C@@H](n2cc(-c3cc(F)c(F)c(F)c3)nn2)[C@@H](O)[C@@H](CO)O[C@@H]1CC1=NOC2(CCCCCC2)C1` [Example 1.38, (2R,3R,4S,5R,6R)-6-((1-oxa-2-azaspiro[4.6]undec-2-en-3-yl)methyl)-2-(hydroxymethyl)-5-methoxy-4-(4-(3,4,5-trifluorophenyl)-1H-1,2,3-triazol-1-yl)tetrahydro-2H-pyran-3-ol], for which the IC50 at human Gal-3 (hGal-3) stood at 160 nM; at human Gal-1 (hGal-1), 6400 nM.

In the case of `CO[C@@H]1[C@@H](n2cc(-c3cc(F)c(F)c(F)c3)nn2)[C@@H](O)[C@@H](CO)O[C@@H]1CC1=NO[C@]2(CC[C@@H](C#N)CC2)C1` [Example 1.39, (5s,8S)-3-(((2R,3R,4S,5R,6R)-5-hydroxy-6-(hydroxymethyl)-3-methoxy-4-(4-(3,4,5-trifluorophenyl)-1H-1,2,3-triazol-1-yl)tetrahydro-2H-pyran-2-yl)methyl)-1-oxa-2-azaspiro[4.5]dec-2-ene-8-carbonitrile], the IC50 at human Gal-3 (hGal-3) was 260 nM; on human Gal-1 (hGal-1), 7100 nM.

Turning to `CO[C@@H]1[C@@H](n2cc(-c3cc(F)c(F)c(F)c3)nn2)[C@@H](O)[C@@H](CO)O[C@@H]1CC1=NO[C@]2(CC[C@H](C#N)CC2)C1` [Example 1.40, (5r,8R)-3-(((2R,3R,4S,5R,6R)-5-hydroxy-6-(hydroxymethyl)-3-methoxy-4-(4-(3,4,5-trifluorophenyl)-1H-1,2,3-triazol-1-yl)tetrahydro-2H-pyran-2-yl)methyl)-1-oxa-2-azaspiro[4.5]dec-2-ene-8-carbonitrile], the half-maximal inhibitory concentration (IC50) came out at 89 nM at human Gal-3 (hGal-3) and 2000 nM on human Gal-1 (hGal-1).

`CO[C@@H]1[C@@H](n2cc(-c3ccc(F)c(F)c3F)nn2)[C@@H](O)[C@@H](CO)O[C@@H]1CC1=NO[C@]2(CC[C@H](NC(=O)OC(C)(C)C)CC2)C1` [Example 1.41, tert-butyl ((5r,8R)-3-(((2R,3R,4S,5R,6R)-5-hydroxy-6-(hydroxymethyl)-3-methoxy-4-(4-(2,3,4-trifluorophenyl)-1H-1,2,3-triazol-1-yl)tetrahydro-2H-pyran-2-yl)methyl)-1-oxa-2-azaspiro[4.5]dec-2-en-8-yl)carbamate]: the IC50 at human Gal-3 (hGal-3) is 12 nM; on human Gal-1 (hGal-1), 300 nM.
